Experiment: Solubility in water (grams/100 ml) at 30, 60 and 90° C.
Format: physicochemical
Settings: for Solubility in water: chloride anion

`CCN(CC[n+]1ccc(C)cc1)c1ccc(N=Nc2ccc([N+](=O)[O-])cc2Cl)cc1` [Example 1, 4-nitro-2-chloroaniline N-2-(N'-ethylanilino)-ethyl-4-methylpyridinium chloride] gave a Solubility in water (30° C.) of 2.5 grams/100 ml, a Solubility in water (60° C.) of 62 grams/100 ml and a Solubility in water (90° C.) greater than 100 grams/100 ml. For the same molecule, the “aqueous solubility compared with Basic Red 18:1” value (both dyestuffs having a chloride anion) was “superior aqueous solubility”.
